Results as given in paper PMC9921896 (Molecules, 2023).

Assays:
Experiment in all cases: Single concentration Kobs assay (time-dependent inhibition) in HLM
Format in all cases: biochemical
CYP1A2 = target: T1, CYP1A2 (Homo sapiens, UniProt P05177); settings: for Kobs 1A2: HLM, 0.02 min^−1 indicates TD inhibition potential; for Kobs 1A2 / inhibition at 30 min: single concentration; for Single concentration Kobs assay (risk bin) 1A2: TD inhibition class from Kobs vs 0.02 min^−1 (Table 5 traffic lights); for inhibition at 30 min: human, human liver microsomes, significant if >50%, read-out: 1A2 R_Inh% (reversible inhibition)
T1 construct: Using HLM as the enzyme source; from tissue; host or cells: human liver microsomes
T1 sequence (P05177 1-516): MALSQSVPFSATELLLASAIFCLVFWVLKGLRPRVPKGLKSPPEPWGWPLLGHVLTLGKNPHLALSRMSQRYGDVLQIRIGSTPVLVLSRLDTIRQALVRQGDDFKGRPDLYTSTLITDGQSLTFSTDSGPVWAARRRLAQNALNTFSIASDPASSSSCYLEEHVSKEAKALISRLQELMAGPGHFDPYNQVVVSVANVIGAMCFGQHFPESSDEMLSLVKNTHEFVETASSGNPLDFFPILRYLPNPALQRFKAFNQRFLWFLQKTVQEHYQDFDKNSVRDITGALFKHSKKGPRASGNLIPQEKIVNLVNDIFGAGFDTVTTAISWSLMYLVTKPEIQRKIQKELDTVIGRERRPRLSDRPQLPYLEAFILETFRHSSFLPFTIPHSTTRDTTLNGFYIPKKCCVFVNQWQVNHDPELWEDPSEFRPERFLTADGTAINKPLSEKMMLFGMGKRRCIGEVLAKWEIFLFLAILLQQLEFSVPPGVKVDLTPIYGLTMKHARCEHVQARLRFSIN
Description: (§1) CYP inhibition evaluation is typically performed by either IC50 at single-point or IC50 Shift or abbreviated assay such as the first-order inactivity rate constant (K obs ) at single concentration.
(§2) This method yielded good correlations between the percent inhibition at 10 or 25 μ M and kinact/KI. Evaluation of TD inhibition at single concentration has been implemented in several drug discovery programs. […] Therefore, in this study, a single K obs approach has been utilized to understand the TD inhibition potential of TbB ligands. Ideally, the inhibition of CYPs can be reversible or irreversible. The data obtained from single-concentration K obs studies were analyzed to understand the same. From the data presented in Table 4, the TbB ligands have values less than 50% for reversible inhibition (R_Inh). As the qualified % reversible inhibition is considered significant if >50%, no significant reversible inhibition is observed for TbB ligands. Knowledge about enzyme inactivation half-life (E½) is also equally important as it would provide insight into the TD inhibition of a compound. E½ can be used to bin the compounds as positive or negative TD inhibitors if the values are <28 or >28, respectively. The TbB ligand 223-2 is observed to be a weak positive TD inhibitor of 1A2 and is negative TD inhibitor to the other six CYP isoforms.
(§3) The time-dependent inhibition (TDI) potential of test compounds against CYP1A2, 2B6, 2C8, 2C9, 2C19, 2D6, 3A4/5 isoforms were determined using Human liver microsomes. Assay is performed in 96-deep well plate format (n = 1). Positive controls and DMSO as negative control in each assay. To obtain 100 μ M working stock solution, 1 μ L of blank DMSO/test/reference compounds to 100 μ L 1× DPBS buffer was added and labeled as dilution plate. To the primary incubation plate, 45 μ L of primary mix was dispensed to the desired wells containing 25 μ L HLM, 10 μ L MgCl2, and 10 μ L of NADPH working solutions. To the secondary incubation plate, 95 μ L of secondary mix was dispensed to the desired wells containing 20 μ L MgCl2, 20 μ L NADPH, 10 μ L respective substrates for CYP isoform working solutions and 45 μ L 1× DPBS buffer. […] Pre-incubated the dilution plate along with primary incubation plate at 37 °C for 15 min at 450 rpm. The reaction was carried out in triplicate. After the incubation, the reaction was quenched by adding 150 μ L ice cold stop solution to all the wells followed by centrifuging the samples at 4000 rpm, 4 °C for 15 min. The supernatant samples were then transferred into vials for LC-MS/MS analysis. […]

CYP2C19 = target: T2, CYP2C19 (Homo sapiens, UniProt P33261); settings: for Kobs 2C19: HLM, 0.02 min^−1 indicates TD inhibition potential; for Kobs 2C19 / inhibition at 30 min: single concentration; for Single concentration Kobs assay (risk bin) 2C19: TD inhibition class from Kobs vs 0.02 min^−1 (Table 5 traffic lights); for inhibition at 30 min: human, human liver microsomes, significant if >50%, read-out: 2C19 R_Inh% (reversible inhibition)
T2 construct: Using HLM as the enzyme source; from tissue; host or cells: human liver microsomes
Description: as §1, §2, §3

CYP2C9 = target: T3, CYP2C9 (Homo sapiens, UniProt P11712); settings: for Kobs 2C9: HLM, 0.02 min^−1 indicates TD inhibition potential; for Kobs 2C9 / inhibition at 30 min: single concentration; for Single concentration Kobs assay (risk bin) 2C9: TD inhibition class from Kobs vs 0.02 min^−1 (Table 5 traffic lights); for inhibition at 30 min: human, human liver microsomes, significant if >50%, read-out: 2C9 R_Inh% (reversible inhibition)
T3 construct: Using HLM as the enzyme source; from tissue; host or cells: human liver microsomes
Description: as §1, §2, §3

T3 sequence (P11712 whole entry): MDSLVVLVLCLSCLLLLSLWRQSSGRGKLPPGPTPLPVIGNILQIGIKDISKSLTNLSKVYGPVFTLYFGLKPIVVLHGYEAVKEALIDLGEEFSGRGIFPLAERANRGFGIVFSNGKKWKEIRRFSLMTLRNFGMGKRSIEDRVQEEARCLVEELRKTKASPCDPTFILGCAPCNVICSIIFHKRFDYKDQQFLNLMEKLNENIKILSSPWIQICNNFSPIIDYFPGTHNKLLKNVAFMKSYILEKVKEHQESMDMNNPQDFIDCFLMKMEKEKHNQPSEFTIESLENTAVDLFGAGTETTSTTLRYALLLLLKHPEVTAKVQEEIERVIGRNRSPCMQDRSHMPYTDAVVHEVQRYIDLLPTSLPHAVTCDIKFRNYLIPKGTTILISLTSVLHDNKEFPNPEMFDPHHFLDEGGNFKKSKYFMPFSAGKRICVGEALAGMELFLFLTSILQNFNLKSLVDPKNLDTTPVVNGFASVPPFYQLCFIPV
T2 sequence (P33261 whole entry): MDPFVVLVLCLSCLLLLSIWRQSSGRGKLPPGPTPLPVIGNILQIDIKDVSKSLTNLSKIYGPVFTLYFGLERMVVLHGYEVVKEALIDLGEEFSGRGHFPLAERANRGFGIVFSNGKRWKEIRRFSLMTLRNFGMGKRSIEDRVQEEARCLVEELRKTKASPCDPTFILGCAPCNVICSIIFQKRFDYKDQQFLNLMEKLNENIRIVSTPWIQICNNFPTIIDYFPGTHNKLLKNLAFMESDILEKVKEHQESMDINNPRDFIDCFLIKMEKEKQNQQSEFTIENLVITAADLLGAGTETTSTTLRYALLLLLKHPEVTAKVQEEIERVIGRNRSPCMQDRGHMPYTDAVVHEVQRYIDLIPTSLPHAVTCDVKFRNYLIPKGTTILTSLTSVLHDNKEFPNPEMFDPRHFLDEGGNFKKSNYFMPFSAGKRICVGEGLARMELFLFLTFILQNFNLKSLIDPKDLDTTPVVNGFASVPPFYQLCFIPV

Kobs 1A2 (CYP1A2)	Kobs 1A2 (CYP1A2; listed as 223-03)	Single concentration Kobs assay (risk bin) 1A2 (CYP1A2)	inhibition at 30 min (CYP1A2)	Kobs 2C19 (CYP2C19)	Kobs 2C19 (CYP2C19; listed as 223-03)	Single concentration Kobs assay (risk bin) 2C19 (CYP2C19)	inhibition at 30 min (CYP2C19)	Kobs 2C9 (CYP2C9)	Kobs 2C9 (CYP2C9; listed as 223-03)	Single concentration Kobs assay (risk bin) 2C9 (CYP2C9)	inhibition at 30 min (CYP2C9)	Kobs 1A2 (CYP1A2; listed as 223-02)	Kobs 2C19 (CYP2C19; listed as 223-02)	Structure (SMILES)
0.0333 min⁻¹	0.03334 min⁻¹	positive inhibitor	< 50%	0.0306 min⁻¹	0.03055 min⁻¹	positive inhibitor	< 50%	0.0748 min⁻¹	0.07477 min⁻¹	positive inhibitor	< 50%			Cc1cc(-c2nnn(-c3cc(C)c(O)c(C)c3)n2)cc(C)c1O [223-3]
0.01456 min⁻¹		weak positive inhibitor	< 50%	0.00365 min⁻¹		negative inhibitor	< 50%			positive inhibitor	< 50%			Oc1ccc(-c2nnn(-c3ccc(O)cc3)n2)cc1 [223-10]
0.0159 min⁻¹		weak positive inhibitor	< 50%	0.0206 min⁻¹		weak positive inhibitor	< 50%	0.005304 min⁻¹		negative inhibitor	< 50%	0.01594 min⁻¹	0.02058 min⁻¹	COc1cc(-c2nnn(-c3cc(OC)c(O)c(OC)c3)n2)cc(OC)c1O [223-2]
